# Measurements from patent publication US4764618A, “Arginine derivatives and pharmaceutically acceptable acid addition salts thereof” (Mitsubishi Chemical Industries Limited, priority 1984, dated 1988).
# Molecular target: T1, trypsin (Bos taurus, UniProt P00760)
# T1 sequence (P00760 24-246): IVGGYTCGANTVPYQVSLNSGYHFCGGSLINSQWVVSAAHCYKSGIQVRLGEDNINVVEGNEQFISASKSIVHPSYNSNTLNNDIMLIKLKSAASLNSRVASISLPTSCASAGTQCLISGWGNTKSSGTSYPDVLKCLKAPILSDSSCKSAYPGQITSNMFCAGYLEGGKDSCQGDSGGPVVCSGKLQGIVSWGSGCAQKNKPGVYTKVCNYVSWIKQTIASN
# Test: Determination of Trypsin-Inhibiting Activity (chromogenic substrate S-2222)
# Assay type: biochemical
# Details: inhibitor concentration giving 50% of ΔA/min (405 nm) without inhibitor; 33.3 μM S-2222, 0.1 M Tris-HCl pH 8.3, 37° C.; read-out: I50
# Procedure: Trypsin-inhibiting activity of the arginine derivatives of this invention was determined by the method described below.
# Determination of Trypsin-Inhibiting Activity
# Trypsin activity is determined by measuring the rate of formation of para-nitroaniline from synthesized chromogenic substrate Jz-Ile-Glu(γ-OH and γ-OCH3)-Gly-Arg-pNA (S-2222)(benzoylisoleucylglutamyl(γ-OH:γ-OCH3 =1:1)glycylarginine p-nitroanilide) supplied by Kabi Diagnostica Inc. Three (3) ml of a reaction mixture containing 33.3 μM of S-2222 and 0.1 M Tris-HCl buffer solution (pH 8.3) is placed in a cell for spectrophotometry and the cell is placed in the thermostatic cell holder at 37° C. of a Hitachi 124 spectrophotometer. After the cell is kept at 37° C. for 3 minutes, 10 μl of a solution of trypsin dissolved in 0.001N HCl containing 0.05M CaCl2 is added, and increase in absorbance at 405 nm is continuously measured using a recorder to calculate ΔA/min at an initial portion. Various inhibitors in various concentrations are added and ΔA/min values are respectively measured. Data are plotted with the inhibitor concentration as abscissa and ΔA/min as ordinate. From the resulting graph the inhibitor concentrations which give ΔA/min corresponding to 50% of the ΔA/min value when no inhibitor is added are sought as I50.
row,IC50 [µM],SMILES
1,0.28,COc1ccc2ccc(S(=O)(=O)N[C@@H](CCCNC(=N)N)C(=O)N3CCC(c4ccccc4OC)CC3)cc2c1 [compound 39]
2,0.4,COc1ccc2ccc(S(=O)(=O)N[C@@H](CCCNC(=N)N)C(=O)N3CCC(c4ccccc4C)CC3)cc2c1 [compound 40]
3,0.46,COc1ccc2ccc(S(=O)(=O)N[C@@H](CCCNC(=N)N)C(=O)N3CCC(c4ccc(Cl)cc4)CC3)cc2c1 [compound 41]
4,37,N=C(N)NCCC[C@H](NS(=O)(=O)c1ccc2ccc(O)cc2c1)C(=O)N1CCC(c2ccccc2)CC1 [compound 42]
5,25,COc1ccc2ccc(S(=O)(=O)N[C@@H](CCCNC(=N)N)C(=O)N3CCC(Oc4ccccc4)CC3)cc2c1 [compound 43]
6,110,N=C(N)NCCC[C@H](NC(=O)c1ccc2ccccc2c1)C(=O)N1CCC(c2ccccc2)CC1 [compound 44]
7,1,COc1ccc2ccc(S(=O)(=O)N[C@@H](CCCNC(=N)N)C(=O)N3CCN(c4cc(Cl)cc(Cl)c4)CC3)cc2c1 [compound 45]
8,1.6,COc1ccc2ccc(S(=O)(=O)N[C@@H](CCCNC(=N)N)C(=O)N3CCN(c4cccc(C(F)(F)F)c4)CC3)cc2c1 [compound 46]
9,2.5,N=C(N)NCCC[C@H](NS(=O)(=O)c1cccc2c(Cl)cccc12)C(=O)N1CCC(c2ccccc2)CC1 [compound 47]
10,1.1,N=C(N)NCCC[C@H](NS(=O)(=O)c1ccc2ccc(Cl)cc2c1)C(=O)N1CCC(c2ccccc2)CC1 [compound 48]
11,450,COc1cc2c(S(=O)(=O)N[C@@H](CCCNC(=N)N)C(=O)N3CCC(c4ccccc4)CC3)cccc2cc1C(=O)O [compound 50]
12,0.3,COc1ccc2ccc(S(=O)(=O)N[C@@H](CCCNC(=N)N)C(=O)N3CCC(c4cccc(C)c4)CC3)cc2c1 [compound 51]
13,0.2,COc1ccc(C2CCN(C(=O)[C@H](CCCNC(=N)N)NS(=O)(=O)c3ccc4ccc(OC)cc4c3)CC2)cc1 [compound 52]
14,0.37,COc1ccc2ccc(S(=O)(=O)N[C@@H](CCCNC(=N)N)C(=O)N3CCC(c4ccc(C)cc4)CC3)cc2c1 [compound 53]
15,0.8,COc1ccc2ccc(S(=O)(=O)N[C@@H](CCCNC(=N)N)C(=O)N3CCN(c4ccccc4O)CC3)cc2c1 [compound 55]
16,0.15,COc1ccc2ccc(S(=O)(=O)N[C@@H](CCCNC(=N)N)C(=O)N3CC[C@@H](c4ccccc4)C[C@@H]3C(=O)O)cc2c1 [compound 56]
17,1.9,COc1ccc2ccc(S(=O)(=O)N[C@@H](CCCNC(=N)N)C(=O)N3CC[C@H](c4ccccc4)C[C@H]3C(=O)O)cc2c1 [compound 57]
18,0.75,COc1cccc(C2CCN(C(=O)[C@H](CCCNC(=N)N)NS(=O)(=O)c3ccc4ccc(OC)cc4c3)CC2)c1 [compound 58]

# The remaining lines, values behind:
row,SMILES,IC50 [µM]
1,CC1CNc2c(cccc2S(=O)(=O)N[C@@H](CCCNC(=N)N)C(=O)N2CCC(c3ccccc3)CC2)C1 (stereo partly shown) [Run No. 1],2.1
2,"COc1ccc2ccc(S(=O)(=O)N[C@@H](CCCNC(=N)N)C(=O)N3CCC(c4ccccc4)CC3)cc2c1 [Run No. 2, 1-[N^2-(7-methoxy-2-naphthalenesulfonyl)-L-arginyl]-4-phenylpiperidine]",0.23
3,COc1cc2ccc(S(=O)(=O)N[C@@H](CCCNC(=N)N)C(=O)N3CCC(c4ccccc4)CC3)cc2cc1OC [Run No. 3],2.4
4,COc1cc2ccc(S(=O)(=O)N[C@@H](CCCNC(=N)N)C(=O)N3CCC(Cc4ccccc4)CC3)cc2cc1OC [Run No. 4],3.5
5,Cc1ccc(S(=O)(=O)N[C@@H](CCCNC(=N)N)C(=O)N2CCC(c3ccccc3)CC2)cc1 [Run No. 5],22
6,CCOC(=O)C1CC(c2ccccc2)CCN1C(=O)[C@H](CCCNC(=N)N)NS(=O)(=O)c1ccc2ccc(OC)cc2c1 (stereo partly shown) [Run No. 23],0.65
7,CCOC(=O)c1cc2cccc(S(=O)(=O)N[C@@H](CCCNC(=N)N)C(=O)N3CCC(c4ccccc4)CC3)c2cc1OC [Run No. 49],2.1
8,CCOC(=O)C1(c2ccccc2)CCN(C(=O)[C@H](CCCNC(=N)N)NS(=O)(=O)c2ccc3ccc(OC)cc3c2)CC1 [Run No. 54],12
9,CC1CNc2c(cccc2S(=O)(=O)N[C@@H](CCCNC(=N)N)C(=O)N2CCN(c3ccccc3)CC2)C1 (stereo partly shown) [compound 6],10
10,COc1ccc2ccc(S(=O)(=O)N[C@@H](CCCNC(=N)N)C(=O)N3CCN(c4ccccc4)CC3)cc2c1 [compound 7],1.5
11,Cc1ccc(S(=O)(=O)N[C@@H](CCCNC(=N)N)C(=O)N2CCN(c3ccccc3)CC2)cc1 [compound 8],74
12,COc1cc2ccc(S(=O)(=O)N[C@@H](CCCNC(=N)N)C(=O)N3CCN(c4ccccc4)CC3)cc2cc1OC [compound 9],7.8
13,N=C(N)NCCC[C@H](NS(=O)(=O)c1ccc2oc3ccccc3c2c1)C(=O)N1CCC(c2ccccc2)CC1 [compound 10],2.2
14,N=C(N)NCCC[C@H](NS(=O)(=O)c1ccc2c(c1)Cc1ccccc1-2)C(=O)N1CCC(c2ccccc2)CC1 [compound 11],3.2
15,Cc1ccc2ccc(S(=O)(=O)N[C@@H](CCCNC(=N)N)C(=O)N3CCC(c4ccccc4)CC3)cc2c1 [compound 12],1
16,COc1ccc2cc(S(=O)(=O)N[C@@H](CCCNC(=N)N)C(=O)N3CCC(c4ccccc4)CC3)cc(OC)c2c1 [compound 13],2.25
17,N=C(N)NCCC[C@H](NC(=O)c1cccc2ccccc12)C(=O)N1CCC(c2ccccc2)CC1 [compound 14],395
18,N=C(N)NCCC[C@H](NS(=O)(=O)c1ccc2cc3c(cc2c1)OCCO3)C(=O)N1CCC(c2ccccc2)CC1 [compound 15],6
19,COc1ccc2ccc(S(=O)(=O)N[C@@H](CCCNC(=N)N)C(=O)N3CCN(c4ccc(Cl)cc4)CC3)cc2c1 [compound 16],0.69
20,COc1ccc2ccc(S(=O)(=O)N[C@@H](CCCNC(=N)N)C(=O)N3CCN(c4cccc(Cl)c4)CC3)cc2c1 [compound 17],0.38

row,SMILES,IC50 [µM]
1,COc1ccc2ccc(S(=O)(=O)N[C@@H](CCCNC(=N)N)C(=O)N3CCN(c4ccccc4Cl)CC3)cc2c1 [compound 18],0.33
2,CCOc1c(OC)ccc(S(=O)(=O)N[C@@H](CCCNC(=N)N)C(=O)N2CCC(c3ccccc3)CC2)c1OC [compound 19],2.4
3,COc1ccc2ccc(S(=O)(=O)N[C@@H](CCCNC(=N)N)C(=O)N3CCN(c4ccccc4OC)CC3)cc2c1 [compound 20],0.8
4,CCOc1ccc2ccc(S(=O)(=O)N[C@@H](CCCNC(=N)N)C(=O)N3CCC(c4ccccc4)CC3)cc2c1 [compound 21],0.9
5,COc1ccc2ccc(S(=O)(=O)N[C@@H](CCCNC(=N)N)C(=O)N3CCN(c4ccccc4C)CC3)cc2c1 [compound 22],0.4
6,COc1ccc2ccc(S(=O)(=O)N[C@@H](CCCNC(=N)N)C(=O)N3CCC(c4ccccc4)CC3C(=O)O)cc2c1 (stereo partly shown) [compound 24],0.4
7,COc1ccc2ccc(S(=O)(=O)N[C@@H](CCCNC(=N)N)C(=O)N3CCC(Cc4ccccc4)CC3)cc2c1 [compound 25],0.6
8,COc1ccc2ccc(S(=O)(=O)N[C@@H](CCCNC(=N)N)C(=O)N3CCN(c4ccc(F)cc4)CC3)cc2c1 [compound 26],0.86
9,COc1ccc2ccc(S(=O)(=O)N[C@@H](CCCNC(=N)N)C(=O)N3CCC(C(C)=O)(c4ccccc4)CC3)cc2c1 [compound 27],35
10,COc1ccc(N2CCN(C(=O)[C@H](CCCNC(=N)N)NS(=O)(=O)c3ccc4ccc(OC)cc4c3)CC2)cc1 [compound 28],2.8
11,COc1ccc(S(=O)(=O)N[C@@H](CCCNC(=N)N)C(=O)N2CCC(c3ccccc3)CC2)c2ccccc12 [compound 29],2.2
12,COc1ccc2ccc(S(=O)(=O)N[C@@H](CCCNC(=N)N)C(=O)N3CCC(C#N)(c4ccccc4)CC3)cc2c1 [compound 30],1.3
13,COc1ccc2cc(S(=O)(=O)N[C@@H](CCCNC(=N)N)C(=O)N3CCC(c4ccccc4)CC3)ccc2c1 [compound 31],41.2
14,Cc1cc2ccc(S(=O)(=O)N[C@@H](CCCNC(=N)N)C(=O)N3CCC(c4ccccc4)CC3)cc2cc1C [compound 32],9
15,COc1ccc2ccc(S(=O)(=O)N[C@@H](CCCNC(=N)N)C(=O)N3CCC(C(=O)Nc4ccccc4)CC3)cc2c1 [compound 33],3.4
16,N=C(N)NCCC[C@H](NS(=O)(=O)c1cccc2c1CCCC2)C(=O)N1CCC(c2ccccc2)CC1 [compound 34],7.7
17,N=C(N)NCCC[C@H](NS(=O)(=O)c1ccc2c(c1)CCCC2)C(=O)N1CCC(c2ccccc2)CC1 [compound 35],6.7
18,COc1cccc2cccc(S(=O)(=O)N[C@@H](CCCNC(=N)N)C(=O)N3CCC(c4ccccc4)CC3)c12 [compound 36],87
19,N=C(N)NCCC[C@H](NS(=O)(=O)c1cccc2ccccc12)C(=O)N1CCC(c2ccccc2)CC1 [compound 37],11
20,N=C(N)NCCC[C@H](NS(=O)(=O)c1ccc2ccccc2c1)C(=O)N1CCC(c2ccccc2)CC1 [compound 38],3.2
